Assay results published in ChEMBL document CHEMBL5661980, “Discovery of OSI-906: a selective and orally efficacious dual inhibitor of the IGF-1 receptor and insulin receptor” (Future Med Chem, 2009).
pIC50: −log10 of the molar value.

What was measured:
Cytochrome P450 3A4 = Cytochrome P450 3A4 (Homo sapiens, UniProt P08684); assay: Inhibition of CYP3A4 (unknown origin) using luciferin as substrate in presence of NADPH generating system incubated for 20 mins by luminescent method; assay type: ADME
[1] = molecular target: Platelet-derived growth factor receptor (Homo sapiens, UniProt P09619+P16234); assay: Inhibition of PDGFR-alpha/beta (unknown origin) in presence of ATP Km treated at 2 hrs followed by […] ligand addition for 15 mins by ELISA analysis
Cytochrome P450 2D6 = Cytochrome P450 2D6 (Homo sapiens, UniProt P10635); assay: Inhibition of CYP2D6 (unknown origin) in presence of NADPH generating system incubated for 20 mins by luminescent method; assay type: ADME
[2] = Clearance in CD-1 mouse measured at 5 mg/kg, iv for 1 to 24 hrs by HPLC-MS/MS analysis; assay type: ADME, organism-based; conditions: in vivo, time 1-24 hrs
[3] = Elimination half life in CD-1 mouse measured at 5 mg/kg, iv for 1 to 24 hrs by HPLC-MS/MS analysis; assay type: ADME, organism-based; conditions: in vivo, time 1-24 hrs, read-out: beta t1/2 (converted)
[4] = Clearance in Sprague-Dawley rat measured at 5 mg/kg, iv for 1 to 24 hrs by HPLC-MS/MS analysis; assay type: ADME, organism-based; conditions: in vivo, time 1-24 hrs
[5] = Volume of distribution at steady state in Sprague-Dawley rat measured at 5 mg/kg, iv for 1 to 24 hrs by HPLC-MS/MS analysis; assay type: ADME, organism-based; conditions: in vivo, time 1-24 hrs, read-out: Vdss
[6] = AUC (0 to infinity) in Sprague-Dawley rat measured at 5 mg/kg, iv for 1 to 24 hrs by HPLC-MS/MS analysis; assay type: ADME, organism-based; conditions: in vivo, time 1-24 hrs
[7] = Elimination half life in Sprague-Dawley rat measured at 5 mg/kg, iv for 1 to 24 hrs by HPLC-MS/MS analysis; assay type: ADME, organism-based; conditions: in vivo, time 1-24 hrs, read-out: beta t1/2 (converted)
[8] = Clearance in Beagle dog measured at 2.5 mg/kg, iv for 1 to 24 hrs by HPLC-MS/MS analysis; assay type: ADME, organism-based, Canis lupus familiaris; conditions: in vivo, time 1-24 hrs
[9] = Volume of distribution at steady state in Beagle dog measured at 2.5 mg/kg, iv for 1 to 24 hrs by HPLC-MS/MS analysis; assay type: ADME, organism-based, Canis lupus familiaris; conditions: in vivo, time 1-24 hrs, read-out: Vdss
[10] = AUC (0 to infinity) in Beagle dog measured at 2.5 mg/kg, iv for 1 to 24 hrs by HPLC-MS/MS analysis; assay type: ADME, organism-based, Canis lupus familiaris; conditions: in vivo, time 1-24 hrs
[11] = Elimination half life in Beagle dog measured at 2.5 mg/kg, iv for 1 to 24 hrs by HPLC-MS/MS analysis; assay type: ADME, organism-based, Canis lupus familiaris; conditions: in vivo, time 1-24 hrs, read-out: beta t1/2 (converted)
[12] = Cmax in CD-1 mouse measured at 5 mg/kg, po for 1 to 24 hrs by HPLC-MS/MS analysis; assay type: ADME, organism-based; conditions: in vivo, time 1-24 hrs
[13] = AUC last in CD-1 mouse measured at 5 mg/kg, po for 1 to 24 hrs by HPLC-MS/MS analysis; assay type: ADME, organism-based; conditions: in vivo, time 1-24 hrs
[14] = Oral bioavailability in CD-1 mouse measured at 5 mg/kg for 1 to 24 hrs by HPLC-MS/MS analysis; assay type: ADME, organism-based; conditions: in vivo, time 1-24 hrs
[15] = Cmax in CD-1 mouse measured at 25 mg/kg, po for 1 to 24 hrs by HPLC-MS/MS analysis; assay type: ADME, organism-based; conditions: in vivo, time 1-24 hrs
[16] = AUC last in CD-1 mouse measured at 25 mg/kg, po for 1 to 24 hrs by HPLC-MS/MS analysis; assay type: ADME, organism-based; conditions: in vivo, time 1-24 hrs
[17] = Oral bioavailability in CD-1 mouse measured at 25 mg/kg for 1 to 24 hrs by HPLC-MS/MS analysis; assay type: ADME, organism-based; conditions: in vivo, time 1-24 hrs
[18] = AUC last in CD-1 mouse measured at 75 mg/kg, po for 1 to 24 hrs by HPLC-MS/MS analysis; assay type: ADME, organism-based; conditions: in vivo, time 1-24 hrs
[19] = Oral bioavailability in CD-1 mouse measured at 75 mg/kg for 1 to 24 hrs by HPLC-MS/MS analysis; assay type: ADME, organism-based; conditions: in vivo, time 1-24 hrs
[20] = Cmax in CD-1 mouse measured at 250 mg/kg, po for 1 to 24 hrs by HPLC-MS/MS analysis; assay type: ADME, organism-based; conditions: in vivo, time 1-24 hrs
[21] = AUC last in CD-1 mouse measured at 250 mg/kg, po for 1 to 24 hrs by HPLC-MS/MS analysis; assay type: ADME, organism-based; conditions: in vivo, time 1-24 hrs
[22] = Oral bioavailability in CD-1 mouse measured at 250 mg/kg for 1 to 24 hrs by HPLC-MS/MS analysis; assay type: ADME, organism-based; conditions: in vivo, time 1-24 hrs
[23] = Cmax in Sprague-Dawley rat measured at 12.5 mg/kg, po for 1 to 24 hrs by HPLC-MS/MS analysis; assay type: ADME, organism-based; conditions: in vivo, time 1-24 hrs
[24] = AUC last in Sprague-Dawley rat measured at 12.5 mg/kg, po for 1 to 24 hrs by HPLC-MS/MS analysis; assay type: ADME, organism-based; conditions: in vivo, time 1-24 hrs
[25] = Oral bioavailability in Sprague-Dawley rat measured at 12.5 mg/kg for 1 to 24 hrs by HPLC-MS/MS analysis; assay type: ADME, organism-based; conditions: in vivo, time 1-24 hrs
[26] = Oral bioavailability in Sprague-Dawley rat measured at 100 mg/kg for 1 to 24 hrs by HPLC-MS/MS analysis; assay type: ADME, organism-based; conditions: in vivo, time 1-24 hrs
[27] = Cmax in Beagle dog measured at 5 mg/kg, po for 1 to 24 hrs by HPLC-MS/MS analysis; assay type: ADME, organism-based, Canis lupus familiaris; conditions: in vivo, time 1-24 hrs
[28] = AUC last in Beagle dog measured at 5 mg/kg, po for 1 to 24 hrs by HPLC-MS/MS analysis; assay type: ADME, organism-based, Canis lupus familiaris; conditions: in vivo, time 1-24 hrs
[29] = Oral bioavailability in Beagle dog measured at 5 mg/kg for 1 to 24 hrs by HPLC-MS/MS analysis; assay type: ADME, organism-based, Canis lupus familiaris; conditions: in vivo, time 1-24 hrs
[30] = In vivo inhibition of IGF-1R phosphorylation in athymic nu/nu CD-1 mouse allografted with mouse 3T3 cells expressing human IGF-1R at 75 mg/kg, po measured after 4 to 24 hrs relative to control; assay type: functional; conditions: nu/nu CD-1, NIH3T3, time 4-24 hrs
[31] = Plasma concentration in athymic nu/nu CD-1 mouse allografted with mouse 3T3 cells expressing human IGF-1R at 75 mg/kg, po measured after 24 hrs; assay type: ADME, organism-based, NIH3T3
NIH3T3 [32] = assay: Antitumor activity against mouse 3T3 cells allografted in athymic nu/nu CD-1 mouse assessed as tumor regression at 75 mg/kg, po for 12 days relative to control; assay type: functional; conditions: time 12 day
NIH3T3 [33] = assay: Antitumor activity against mouse 3T3 cells allografted in athymic nu/nu CD-1 mouse assessed as tumor regression at 25 mg/kg, po for 12 days relative to control; assay type: functional; conditions: time 12 day
NIH3T3 [34] = assay: Antitumor activity against mouse 3T3 cells allografted in athymic nu/nu CD-1 mouse assessed as tumor growth inhibition at 25 mg/kg, po for 12 days relative to control; assay type: functional; conditions: NIH3T3, 288 h, time 12 day, read-out: TGI
[35] = Toxicity in athymic nu/nu CD-1 mouse allografted with mouse 3T3 cells expressing human IGF-1R assessed as hyperglycemia at 75 mg/kg, po for 12 days; assay type: organism-based, NIH3T3; conditions: in vivo, 288 h, time 12 day
[36] = Plasma concentration in CD-1 mouse measured at 25 mg/kg, po for 24 hrs by HPLC-MS/MS analysis; assay type: ADME, organism-based
[37] = Plasma concentration in CD-1 mouse measured at 75 mg/kg, po for 24 hrs by HPLC-MS/MS analysis; assay type: ADME, organism-based

Cytochrome P450 3A4, sequence (P08684 whole entry): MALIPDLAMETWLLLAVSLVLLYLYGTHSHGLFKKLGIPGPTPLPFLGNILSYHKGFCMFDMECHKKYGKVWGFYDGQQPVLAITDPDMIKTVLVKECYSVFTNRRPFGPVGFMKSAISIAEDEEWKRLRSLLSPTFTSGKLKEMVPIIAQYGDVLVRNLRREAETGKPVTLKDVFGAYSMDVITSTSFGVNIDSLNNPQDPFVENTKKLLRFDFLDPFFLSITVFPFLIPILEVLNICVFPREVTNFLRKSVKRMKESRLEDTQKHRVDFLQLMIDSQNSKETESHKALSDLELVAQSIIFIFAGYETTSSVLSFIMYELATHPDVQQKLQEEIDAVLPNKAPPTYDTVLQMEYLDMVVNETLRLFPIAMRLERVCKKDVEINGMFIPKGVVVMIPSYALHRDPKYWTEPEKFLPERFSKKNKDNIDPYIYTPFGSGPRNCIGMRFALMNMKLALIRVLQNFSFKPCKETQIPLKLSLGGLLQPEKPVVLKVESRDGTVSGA
Cytochrome P450 2D6, sequence (P10635 whole entry): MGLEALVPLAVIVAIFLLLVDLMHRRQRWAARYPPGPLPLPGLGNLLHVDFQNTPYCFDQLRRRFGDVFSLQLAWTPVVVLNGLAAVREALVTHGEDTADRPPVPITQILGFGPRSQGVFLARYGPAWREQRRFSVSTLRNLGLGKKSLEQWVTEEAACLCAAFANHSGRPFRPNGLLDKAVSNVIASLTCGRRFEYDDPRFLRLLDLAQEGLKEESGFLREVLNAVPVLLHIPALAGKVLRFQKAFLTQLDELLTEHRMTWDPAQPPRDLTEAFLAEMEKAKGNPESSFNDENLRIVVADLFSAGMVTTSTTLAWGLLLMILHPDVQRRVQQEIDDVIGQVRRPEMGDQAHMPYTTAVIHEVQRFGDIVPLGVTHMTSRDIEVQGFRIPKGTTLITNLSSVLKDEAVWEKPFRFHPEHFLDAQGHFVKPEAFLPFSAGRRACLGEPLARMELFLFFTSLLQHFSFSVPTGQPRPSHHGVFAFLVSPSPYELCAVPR

- pIC50 (Cytochrome P450 3A4): < 5.00
- pIC50 [1]: < 5.00
- pIC50 (Cytochrome P450 2D6): < 5.00
- clearance [2]: 12 mL/min/kg
- half-life [3]: 2.14 h
- clearance [4]: 4 mL/min/kg
- Vd [5]: 0.79 L/kg
- AUC(0-inf) [6]: 23100 ng·h/mL
- half-life [7]: 2.64 h
- clearance [8]: 39 mL/min/kg
- Vd [9]: 4.3 L/kg
- AUC(0-inf) [10]: 1070 ng·h/mL
- half-life [11]: 1.18 h
- Cmax [12]: 3.42 µM
- AUC(0-t) [13]: 6770 ng·h/mL
- bioavailability [14]: 98%
- Cmax [15]: 16 µM
- AUC(0-t) [16]: 26700 ng·h/mL
- bioavailability [17]: 100%
- AUC(0-t) [18]: 87500 ng·h/mL
- bioavailability [19]: 84%
- Cmax [20]: 42 µM
- AUC(0-t) [21]: 317000 ng·h/mL
- bioavailability [22]: > 100%
- Cmax [23]: 10 µM
- AUC(0-t) [24]: 42800 ng·h/mL
- bioavailability [25]: 74%
- bioavailability [26]: 92%
- Cmax [27]: 1.2 µM
- AUC(0-t) [28]: 1330 ng·h/mL
- bioavailability [29]: 64%
- concentration at 24 h [31]: 4.77 µM
- concentration at 24 h [36]: 0.02 µM
- concentration at 24 h [37]: 2.92 µM
Structure (SMILES): C[C@]1(O)C[C@@H](c2nc(-c3ccc4ccc(-c5ccccc5)nc4c3)c3c(N)nccn32)C1 [LINSITINIB]
- inhibition in vivo at 75 mg/kg [30]: 80%
- Activity (NIH3T3 [32]): 55%
- Activity (NIH3T3 [33]): 0%
- inhibition in vivo at 25 mg/kg (NIH3T3 [34]): 60%
- Activity [35]: Toxic
